We go through four compounds from patent US20040044006A1, “Methods of use of quinolone compounds against pneumococcal and haemophilus bacteria” (priority 1999, published 2004).

≈ marks a conversion by molar mass, not a printed value. Where “and” joins values, the source holds several entries; their conditions need not be identical. Equal entries are not always repeated. Where two headings read alike, the source gives them in different places.

The subject of assay [1] is pneumococci (5 quinolone susceptible and 1 resistant strains). The assay can be described thus: Post-antibiotic effect (PAE) testing. It is filed as cell-based, Streptococcus pneumoniae. A digest of the protocol: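 Pneumococci (~5×10^6 cfu/ml) in MHB with 5% lysed horse blood were exposed 1 h at 35 °C, the quinolone-resistant strain at 5×MIC, then diluted 1:1000. Viable counts every 2 h until McFarland #1 turbidity. PAE = T − C, the 1 log10 regrowth time versus untreated control; mean of two assays ±SD.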

Assay [2] concerns penicillin susceptible and resistant pneumococcal strains (2 quinolone resistant). The assay can be described thus: Time-kill testing of 12 pneumococcal strains. Type of assay: cell-based, Streptococcus pneumoniae. Particulars: for concentration at which bactericidal after 24 h: 12 penicillin susceptible and resistant pneumococcal strains, bactericidal = ≧3 log10 cfu/ml (99.9%) reduction. Here is the method:
For time-kill studies, glass tubes containing 5 ml cation-adjusted Mueller-Hinton broth (Difco)+5% lysed horse blood with doubling antibiotic concentrations were inoculated with 5×10^5 to 5×10^6 cfu/ml and incubated at 35° C. in a shaking water bath. […] Growth controls with inoculum but no antibiotic were included with each experiment (Pankuch, et al., Antimicrob. Agents Chemother. 38:2065-2072, 1994; Pankuch, et al., Antimicrob. Agents Chemother. 40:1653-1656, 1996).
Lysed horse blood was prepared as described previously. The bacterial inoculum was prepared by diluting a 16 h broth (medium as above) culture in the same medium. Dilutions required to obtain the correct inoculum (5×10^5-5×10^6 cfu/ml) were determined by prior viability studies using each strain (Pankuch, et al., Antimicrob. Agents Chemother. 38:2065-2072, 1994; Pankuch, et al., Antimicrob. Agents Chemother. 40: 1653-1656, 1996).
To inoculate each tube of serially diluted antibiotic, 50 μl of diluted inoculum was delivered by pipette beneath the surface of the broth. Tubes were then vortexed and plated for viability counts within 10 min (approximately 0.2 h). The original inoculum was determined by using the untreated growth control. Only tubes containing an initial inoculum within the range of 5×10^5 to 5×10^6 cfu/ml were acceptable (Pankuch, et al., Antimicrob. Agents Chemother. 38:2065-2072, 1994; Pankuch, et al., Antimicrob. Agents Chemother. 40:1653-1656, 1996).
Viability counts of antibiotic-containing suspensions were performed by plating ten-fold dilutions of 0.1 ml aliquots from each tube in sterile Mueller-t-Hinton broth onto trypticase soy agar 5% sheep blood agar plates (BBL). Recovery plates were incubated for up to 72 h. Colony Counts were performed on plates yielding 30-300 colonies. The lower limit of sensitivity of colony counts was 300 cfu/ml (Pankuch, et al., Antimicrob. Agents Chemother. 38:2065-2072, 1994; Pankuch, et al., Antimicrob. Agents Chemother. 40:1653-1656, 1996).
Time-kill assays were analysed by determining the number of strains which yielded a log10 cfu/ml of −1, −2 and −3 at 0, 3, 6, 12 and 24 h, compared to counts at time 0 h. Antimicrobials were considered bactericidal at the lowest concentration that reduced the original inoculum by ≧3 log10 cfu/ml (99.9%) at each of the time periods, and bacteriostatic if the inoculum was reduced by 0-3 log10 cfu/ml. […] The problem of bacterial carryover was addressed as described previously. For macrolide time-kill testing, only strains with MICs≦4.0 μg/ml were tested (Pankuch, et al., Antimicrob. Agents Chemother. 38:2065-9072, 1994; Pankuch, et al., Antimicrob. Agents Chemother. 40:1653-1656, 1996).

The test system of assay [3] is quinolone susceptible pneumococci (ciprofloxacin MICs ≦4.0 μg/ml). The assay can be described thus: Agar dilution MICs of 207 quinolone susceptible pneumococcal strains. It is filed as cell-based, Streptococcus pneumoniae. Conditions: Streptococcus pneumoniae; for MIC90: read-out: MIC90. A digest of the protocol: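 Agar dilution MICs by prior methods on Mueller-Hinton agar with 5% sheep blood; S. pneumoniae ATCC 49619 among QC strains each run. Isolates were recent U.S. strains plus some from South Africa, Europe and Korea.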
Background: Agar dilution tests growth on a series of plates holding different concentrations.

Assay [4] deals with methicillin-susceptible and -resistant Staphylococcus aureus, methicillin-resistant Staphylococcus epidermidis and S. pneumoniae. Particulars: previous studies; cited from earlier work.
[5] abbreviates: 5×MIC, quinolone resistant strain.
The mark [6] stands for this setting: 10×MIC for 1 h, range over 5 quinolone susceptible strains.
Where [7] appears, read: agar dilution, Penicillin I strains.
Setting [8] is: agar dilution, Penicillin I strains, read-out: MIC range.
[9] abbreviates: agar dilution, Penicillin R strains.
The mark [10] stands for this setting: agar dilution, Penicillin R strains, read-out: MIC range.
The mark [11] stands for this setting: agar dilution, Penicillin S strains.
Where [12] appears, read: agar dilution, Penicillin S strains, read-out: MIC range.
[13] abbreviates: agar dilution, all 207 strains (64 penicillin susceptible, 68 intermediate, 75 resistant).

By MIC50 is commonly meant the lowest concentration that inhibits either 50% of growth or 50% of the strains tested, depending on the study. As usually defined, the MIC90 is an inhibitory concentration at the 90% level, which refers to growth in some studies and to a panel of isolates in others. By MIC is commonly meant the smallest concentration in the dilution series that meets the test's criterion for growth inhibition. `N[C@@H]1[C@H]2CN(c3nc4c(cc3F)c(=O)c(C(=O)O)cn4-c3ccc(F)cc3F)C[C@@H]12` [Trovafloxacin, trovafloxacin]: the PAE in assay [1] (setting [5]) is 1.3 h; in assay [1] (setting [6]) it was 0.3 to 3.0 h. Besides, the “concentration at which bactericidal after 24 h” value in assay [2] (24 h) was determined as 4 ×MIC. Besides, the “bactericidal activity for the two quinolone resistant pneumococcal strains” value in assay [2] was “bactericidal at the microbroth MIC”. Further, the MIC50 in assay [3] (setting [7]), in assay [3] (setting [9]) and in assay [3] (setting [11]) was 0.125 µg/mL (≈ 0.3 µM) throughout. The MIC90 in assay [3] (setting [7]), in assay [3] (setting [9]), in assay [3] (setting [11]) and in assay [3] (setting [13]) was 0.25 µg/mL (≈ 0.6 µM) throughout. The results for the MIC in assay [3] (setting [8]), in assay [3] (setting [10]) and in assay [3] (setting [12]) were 0.016 to 1 µg/mL (≈ 0.0384 to 2.4 µM), 0.03 to 0.25 µg/mL (≈ 0.0721 to 0.6 µM) and 0.03 to 0.5 µg/mL (≈ 0.0721 to 1.2 µM), respectively.
Take `Cc1c(F)c(N2CCNC(C)C2)cc2c1c(=O)c(C(=O)O)cn2C1CC1` (centres unmarked) [Grepafloxacin, grepafloxacin]: the PAE in assay [1] (setting [5]) was 1.5 h; in assay [1] (setting [6]), 0.3 to 2.6 h. For the same compound, the “concentration at which bactericidal after 24 h” value in assay [2] (24 h) was 4 ×MIC. For the same compound, the MIC50 in assay [3] (setting [7]) amounted to 0.125 µg/mL (≈ 0.348 µM); in assay [3] (setting [9]) it was 0.25 µg/mL (≈ 0.696 µM); in assay [3] (setting [11]), 0.125 µg/mL (≈ 0.348 µM); in assay [3] (setting [13]), 0.125 µg/mL (≈ 0.348 µM). The MIC90 in assay [3] (setting [7]), in assay [3] (setting [9]), in assay [3] (setting [11]) and in assay [3] (setting [13]) was 0.5 µg/mL (≈ 1.39 µM) in each case. Besides, the MIC in assay [3] (setting [8]) lay within 0.03 to 0.5 µg/mL (≈ 0.0835 to 1.39 µM); in assay [3] (setting [10]), 0.03 to 0.5 µg/mL (≈ 0.0835 to 1.39 µM); in assay [3] (setting [12]), 0.03 to 1 µg/mL (≈ 0.0835 to 2.78 µM).
On to `CO/N=C1\CN(c2nc3c(cc2F)c(=O)c(C(=O)O)cn3C2CC2)CC1CN` (racemic) [Gemifloxacin, (R,S)-7-(3-aminomethyl-4-methoxyiminopyrrolidin-1-yl)-1-cyclopropyl-6-fluoro-4-oxo-1,4-dihydro-1,8-naphthyridine-3-carboxylic acid], for which the PAE is 0.9 h in assay [1] (setting [5]) and 0.4 to 1.6 h in assay [1] (setting [6]). Besides, the “concentration at which bactericidal after 24 h” value in assay [2] (24 h) is reported as 2 ×MIC. Moreover, in assay [2] (all 12 strains, 24 h), the “concentration at which uniformly bactericidal after 24 h” value was ≤ 0.5 µg/mL. Further, the “bactericidal activity for the two quinolone resistant pneumococcal strains” value in assay [2] is listed as “bactericidal at the microbroth MIC”. In addition, the MIC50 in assay [3] (setting [7]), in assay [3] (setting [9]), in assay [3] (setting [11]) and in assay [3] (setting [13]) was 0.03 µg/mL (≈ 0.077 µM) in each case. Besides, the MIC90 was found to be 0.06 µg/mL (≈ 0.154 µM) in assay [3] (setting [7]), 0.06 µg/mL (≈ 0.154 µM) in assay [3] (setting [9]), 0.03 µg/mL (≈ 0.077 µM) in assay [3] (setting [11]) and 0.06 µg/mL (≈ 0.154 µM) in assay [3] (setting [13]). Moreover, the MIC in assay [3] (setting [8]) lay within 0.008 to 0.25 µg/mL (≈ 0.0205 to 0.642 µM); in assay [3] (read-out: MIC range, agar dilution, Penicillin R strains), 0.004 to 0.125 µg/mL (≈ 0.0103 to 0.321 µM); in assay [3] (read-out: MIC range, agar dilution, Penicillin S strains) it was 0.008 to 0.125 µg/mL (≈ 0.0205 to 0.321 µM). In assay [4], the “fold more active than ciprofloxacin, ofloxacin, sparfloxacin and trovafloxacin” value was 32 to 64 fold and 32-64 fold.
Take `C[C@@H]1CN(c2c(F)c(N)c3c(=O)c(C(=O)O)cn(C4CC4)c3c2F)C[C@H](C)N1` [Sparfloxacin, sparfloxacin]: the PAE in assay [1] (setting [5]) is 1.5 h; in assay [1] (setting [6]), 0.3 to 2.0 h. In addition, the “concentration at which bactericidal after 24 h” value in assay [2] (24 h) is 2 ×MIC. Also, the MIC50 in assay [3] (setting [7]), in assay [3] (setting [9]), in assay [3] (setting [11]) and in assay [3] (setting [13]) was 0.5 µg/mL (≈ 1.27 µM) throughout. Further, the MIC90 in assay [3] (setting [7]) came out at 0.5 µg/mL (≈ 1.27 µM); in assay [3] (setting [9]), 0.5 µg/mL (≈ 1.27 µM); in assay [3] (setting [11]), 1 µg/mL (≈ 2.55 µM); in assay [3] (setting [13]) it was 0.5 µg/mL (≈ 1.27 µM). Besides, the MIC in assay [3] (setting [8]) lay within 0.06 to 2 µg/mL (≈ 0.153 to 5.1 µM); in assay [3] (setting [10]) it was 0.06 to 1 µg/mL (≈ 0.153 to 2.55 µM); in assay [3] (setting [12]), 0.03 to 1 µg/mL (≈ 0.0765 to 2.55 µM).
